{"source": "patent US12193458B2", "about": "“Sweetening composition and preparation method and use thereof” (HUNAN NUTRAMAX INC., priority 2019, dated 2025)", "origin": "cited, not measured here", "key": {"[1]": {"details": "component of Rubus suavissimus S. Lee"}, "[2]": {"details": "pH value of 3 to 12, heated, under light irradiation"}}}
{"compound": "Suavioside D2", "values": [{"measurement": "taste", "setting": "[1]", "result": "bitter taste"}]}
{"compound": "Suavioside I", "values": [{"measurement": "taste", "setting": "[1]", "result": "sweet taste"}]}
{"compound": "Suavioside E", "values": [{"measurement": "taste", "setting": "[1]", "result": "tasteless"}]}
{"compound": "C[C@@H]1CC[C@]2(C(=O)O[C@@H]3O[C@H](CO)[C@@H](O)[C@H](O)[C@H]3O)CC[C@]3(C)C(=CC[C@@H]4[C@@]5(C)C[C@@H](O)[C@H](O)[C@@](C)(CO)[C@@H]5CC[C@]43C)[C@@H]2[C@]1(C)O", "note": "[Nigaichigoside F1]", "values": [{"measurement": "taste", "setting": "[1]", "result": "bitter taste"}]}
{"compound": "C=C1C[C@@]23CC[C@H]4[C@@](C)(CCC[C@@]4(C)C(=O)O[C@@H]4O[C@H](CO)[C@@H](O)[C@H](O)[C@H]4O)[C@@H]2CC[C@]1(O[C@@H]1O[C@H](CO)[C@@H](O)[C@H](O)[C@H]1O)C3", "note": "[Rubusoside]", "values": [{"measurement": "decomposition when heated in a water solution", "setting": "[2]", "result": "will not decompose significantly"}]}
{"compound": "Suavioside G", "values": [{"measurement": "taste", "setting": "[1]", "result": "sweet taste"}]}
{"compound": "C[C@@]12CCC[C@@](C)(C(=O)O[C@@H]3O[C@H](CO)[C@@H](O)[C@H](O)[C@H]3O)[C@H]1CC[C@@]13C[C@@H](CC[C@H]12)[C@@](O)(CO)C3", "note": "[Paniculoside IV]", "values": [{"measurement": "taste", "setting": "[1]", "result": "tasteless"}]}
{"compound": "Suavioside H", "values": [{"measurement": "taste", "setting": "[1]", "result": "sweet taste"}]}
{"compound": "Suavioside D1", "values": [{"measurement": "taste", "setting": "[1]", "result": "tasteless"}]}
{"compound": "Suavioside C1", "values": [{"measurement": "taste", "setting": "[1]", "result": "bitter taste"}]}
{"compound": "CC1(C)C(=O)CCC2(C)C3CCC4CC3(CCC12)CC4(O)COC1OC(CO)C(O)C(O)C1O", "note": "(stereo not shown) [Sugereoside]", "values": [{"measurement": "taste", "setting": "[1]", "result": "bitter taste"}]}
{"compound": "Suavioside J", "values": [{"measurement": "taste", "setting": "[1]", "result": "sweet taste"}]}
{"compound": "C=C1C[C@@]23CC[C@H]4[C@@](C)(CCC[C@@]4(C)C(=O)O)[C@@H]2CC[C@]1(O[C@@H]1O[C@H](CO)[C@@H](O)[C@H](O)[C@H]1O)C3", "note": "[Steviolmonoside]", "values": [{"measurement": "taste", "setting": "[1]", "result": "sweet taste"}]}
{"compound": "CC1(C)C(O)CCC2(C)C3CCC4CC3(CCC12)CC4(O)COC1OC(CO)C(O)C(O)C1O", "note": "(stereo not shown) [Suavioside A]", "values": [{"measurement": "taste", "setting": "[1]", "result": "sweet taste"}]}
{"compound": "Suavioside F", "values": [{"measurement": "taste", "setting": "[1]", "result": "bitter taste"}]}
{"compound": "Suavioside B", "values": [{"measurement": "taste", "setting": "[1]", "result": "sweet taste"}]}
